Results as given in patent US20240390298A1, “CYCLOHEXYL BETA-HYDROXY ALKYL AMINES AND MEDICAL USES THEREOF” (ATROGI AB, priority 2021, published 2024).
Counter-ions that a name gives are not always drawn.

Legend:
Assay type in all cases: cell-based
[1] = tested on: L6-myotubes; assay: Glucose uptake in differentiated L6-myotubes (3H-2-deoxyglucose), compared to isoproterenol; conditions: agonist 1×10^−5 M, 50 nM 3H-2-deoxyglucose
Outline: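 Serum-starved differentiated L6 myotubes stimulated with agonist at 1×10^−5 M for 1 h 40 min, re-dosed in glucose-free medium for 20 min, then given 50 nM ^3H-2-deoxyglucose for 10 min. Uptake read by β-counting of NaOH lysates; activity expressed relative to isoproterenol.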

[2] = tested on: L6-myotubes; assay: Glucose uptake in L6-myotubes in the presence of the β2-antagonist ICI-118,551; conditions: differentiated L6-myotubes; compound 1×10^−5 M; ICI-118,551 1×10^−5 M
Procedure: L6-myoblasts were grown in Dulbecco's Modified Eagle's Medium (DMEM) containing 1 g/L glucose supplemented with 10% fetal bovine serum, 2 mM L-Glutamine, 50 U/mL penicillin, 50 μg/mL streptomycin and 10 mM HEPES. Cells were plated at 1×10^5 cells per mL in 24-well plates. After reaching 90% confluence the cells were grown in medium containing 2% FBS for 7 days where upon cells differentiated into myotubes.
Differentiated L6-myotubes were serum-starved overnight in medium containing 0.5% fatty-acid free BSA and were incubated with the β2-adrenergic receptor antagonist ICI-118,551 at a final concentration of 1×10^−5 M for 30 min. The cells were stimulated with a compound of the invention, at a final concentration of 1×10^−5 M. After 1 h 40 min the cells were washed twice with warm, glucose free medium or PBS and additional portions of the compound of the invention and the antagonist were added. After 20 min the cells were exposed to 50 nM ^3H-2-deoxyglucose for 10 min before washed with ice cold glucose free medium or PBS three times and lysed with 0.2 M NaOH, 400 μL/well, for 1 h at 60° C. The cell lysate was mixed with 4 mL scintillation buffer (Emulsifier Safe, Perkin Elmer) and the radioactivity was detected in a β-counter (Tri-Carb 4810TR, Perkin Elmer). The activity for each compound is compared to that of isoproterenol.

[3] = tested on: L6-myotubes; assay: Measurement of intracellular cAMP levels in differentiated L6 cells (alpha screen cAMP kit), compared to isoproterenol; conditions: Rattus norvegicus, L6, 0.25 h, agonist 1×10^−5 M, 15 min, read-out: Biological example 2: intracellular cAMP levels, activity compared to that of isoproterenol
Outline: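 L6 myoblasts were differentiated into myotubes over 7 days in 2% FBS, then serum-starved overnight. Agonist at 1×10^−5 M final was applied for 15 min in HBSS with 1% BSA, 5 mM HEPES and 1 mM IBMX, pH 7.4. After ethanol extraction and lysis, cAMP was quantified by AlphaScreen, with activity expressed relative to isoproterenol.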

Row | Compound | Biological example 1: glucose uptake, activity compared to that of isoproterenol [1] | Biological example 3: glucose uptake in the presence of the β2-antagonist ICI-118,551, activity compared to that of isoproterenol [2] | Emax at 10 µM [3]
1 | CC(C)(C[C@H]1CC[C@H](N)CC1)NC[C@H](O)c1cncc(F)c1 [Example 85, (R)-2-((1-((1r,4R)-4-Aminocyclohexyl)-2-methylpropan-2-yl)amino)-1-(5-fluoropyridin-3-yl)ethan-1-ol] | + + + | − (less than 25%) | < 25%
2 | COC(=O)[C@H]1CC[C@H](CC(C)(C)NC[C@H](O)c2cccc(F)c2)CC1 [Example 107, Methyl (1R,4r)-4-(2-(((R)-2-(3-Fluorophenyl)-2-hydroxyethyl)amino)-2-methylpropyl)cyclohexane-1-carboxylate] | + + + | − (less than 25%) | < 25%
3 | COC(=O)[C@H]1CC[C@@H](CCC(C)(C)NC[C@H](O)c2cncc(F)c2)CC1 [Example 112, Methyl (1S,4s)-4-(3-(((R)-2-(5-fluoropyridin-3-yl)-2-hydroxyethyl)amino)-3-methylbutyl)cyclohexane-1-carboxylate] | + + + | − (less than 25%) | 25 to 50%
4 | COC(=O)[C@H]1CC[C@H](CCC(C)(C)NC[C@H](O)c2cncc(F)c2)CC1 [Example 116, Methyl (1R,4r)-4-(3-(((R)-2-(5-fluoropyridin-3-yl)-2-hydroxyethyl)amino)-3-methylbutyl)cyclohexane-1-carboxylate] | + + + | − (less than 25%) | < 25%
5 | CNS(=O)(=O)[C@H]1CC[C@@H](CC(C)(C)NC[C@H](O)c2cccc(F)c2)CC1.Cl [Example 192, (1S,4s)-4-(2-(((R)-2-(3-Fluorophenyl)-2-hydroxyethyl)amino)-2-methyl-propyl)-N-methylcyclohexane-1-sulfonamide hydrochloride] | + + + | – | < 25%
6 | CNS(=O)(=O)[C@H]1CC[C@@H](CC(C)(C)NC[C@H](O)c2cncc(F)c2)CC1 [Example 193, (1S,4s)-4-(2-(((R)-2-(5-Fluoropyridin-3-yl)-2-hydroxyethyl)amino)-2-methylpropyl)-N-methylcyclohexane-1-sulfonamide dihydrochloride] | + + + | – | < 25%
7 | CC(C)(C[C@H]1CC[C@H](S(N)(=O)=O)CC1)NC[C@H](O)c1cccc(F)c1.Cl [Example 194, (1R,4r)-4-(2-(((R)-2-(3-Fluorophenyl)-2-hydroxyethyl)amino)-2-methylpropyl)cyclohexane-1-sulfonamide hydrochloride] | + + + | – | < 25%
8 | CC(C)(C[C@H]1CC[C@H](S(N)(=O)=O)CC1)NC[C@H](O)c1cncc(F)c1 [Example 195, (1R,4r)-4-(2-(((R)-2-(5-Fluoropyridin-3-yl)-2-hydroxyethyl)amino)-2-methylpropyl)cyclohexane-1-sulfonamide dihydrochloride] | + + + | – | < 25%
9 | CC(C)(C[C@H]1CC[C@@H](S(N)(=O)=O)CC1)NC[C@H](O)c1cccc(F)c1.Cl [Example 196, (1S,4s)-4-(2-(((R)-2-(3-Fluorophenyl)-2-hydroxyethyl)amino)-2-methylpropyl)cyclohexane-1-sulfonamide hydrochloride] | + + + | – | < 25%
10 | CC(C)(C[C@H]1CC[C@@H](S(N)(=O)=O)CC1)NC[C@H](O)c1cncc(F)c1 [Example 197, (1S,4s)-4-(2-(((R)-2-(5-Fluoropyridin-3-yl)-2-hydroxyethyl)amino)-2-methylpropyl)cyclohexane-1-sulfonamide dihydrochloride] | + + + | – | < 25%
11 | CCCS(=O)(=O)N[C@H]1CC[C@@H](CC(C)(C)NC[C@H](O)c2cncc(F)c2)CC1 [Example 198, N-((1S,4s)-4-(2-(((R)-2-(5-Fluoropyridin-3-yl)-2-hydroxyethyl)amino)-2-methylpropyl)cyclohexyl)propane-1-sulfonamide] | + + + | – | < 25%
12 | CC(C)(C[C@H]1CC[C@@H](NS(=O)(=O)C(F)(F)F)CC1)NC[C@H](O)c1cncc(F)c1 [Example 199, 1,1,1-Trifluoro-N-((1S,4s)-4-(2-(((R)-2-(5-fluoropyridin-3-yl)-2-hydroxy-ethyl)amino)-2-methylpropyl)cyclohexyl)methanesulfonamide dihydrochloride] | + + + | – | < 25%
